Test results taken from patent US11046949B2, “Method and system for microbial lysis using periodates” (priority 2014, dated 2021).
Values joined by “and” are separate entries in the source; they are usually repeats but may differ in a detail not shown here. Equal values may be shown once. Read-outs that look alike come from different tables or passages of the source.

How the values were obtained:
[1] = tested on: Bacillus subtilis vegetative cells; experiment: DNA release from B. subtilis by per-halogenated and oxidizing compounds, Acid-Hydrolysis HPLC Method; type: cell-based; details: 70° C. 20 minutes; for % DNA release / AUC, Ade: 15 mM compound in BD buffer, samples 1-3; for % DNA release (Average) / AUC, Ade (Average): 15 mM compound, average of 3
K. pneumonia [2] = type: cell-based, Klebsiella pneumonia; details: periodate +, BD2 buffer
F. philomiragia [3] = type: cell-based, Francisella philomiragia; details: periodate +, BD2 buffer
C. albicans [4] = type: cell-based, Candida albicans; details: BD2 buffer
[5] = tested on: attenuated MTB H37Ra (aMTB) spiked in sputum; experiment: DNA isolated from aMTB-spiked sputum using swabs and periodate, RD4 rtPCR
S. aureus [6] = type: cell-based, Staphylococcus aureus; details: BD2 buffer
F. philomiragia [7] = type: cell-based, Francisella philomiragia; details: BD2 buffer
Y. enterocolitica [8] = type: cell-based, Yersinia enterocolitica; details: BD2 buffer
[9] = tested on: B. anthracis Sterne Strain spores; type: cell-based, Bacillus anthracis; details: Post-Periodate: BD2 buffer, 30 mM NPI, 70° C. 20 minutes, FIG. 15
Mycobacterium smegmatis = experiment: NPI-mediated release of DNA from M. smegmatis as a function of pH, Acid-Extraction HPLC Method
[10] = tested on: attenuated M. tuberculosis (aMTB) spiked in saliva; type: cell-based, Mycobacterium tuberculosis
C. albicans [11] = details: periodate +, BD2 buffer
M. catarrhalis [12] = type: cell-based, Moraxella catarrhalis; details: periodate +, BD2 buffer
P. aeruginosa [13] = type: cell-based, Pseudomonas aeruginosa; details: periodate +, BD2 buffer
[14] = biological target: Pancreatic Ribonuclease A (Bos taurus, UniProt P61823); experiment: Pure pancreatic ribonuclease A treated with periodate, SDS-PAGE; details: 15 mM periodate, 70° C. 15 minutes, FIG. 12
K. pneumonia [15] = type: cell-based, Klebsiella pneumonia; details: BD2 buffer
P. aeruginosa [16] = type: cell-based, Pseudomonas aeruginosa; details: BD2 buffer
[17] = tested on: M. tuberculosis in TB-positive sputum; experiment: TB-positive sputum, qPCR targeting RD4 MTBC region of difference; type: cell-based, Mycobacterium tuberculosis
M. smegmatis [18] = type: cell-based, Mycobacterium smegmatis; details: BD2 buffer
B. thuringiensis [19] = type: cell-based, Bacillus thuringiensis; details: periodate +, BD2 buffer
[20] = tested on: C. botulinum Type B spores; type: cell-based, Clostridium botulinum; details: Post-Periodate: BD2 buffer, 30 mM NPI, 70° C. 20 minutes, FIG. 16
M. smegmatis [21] = type: cell-based, Mycobacterium smegmatis; details: periodate +, BD2 buffer
S. aureus [22] = type: cell-based, Staphylococcus aureus; details: periodate +, BD2 buffer
M. catarrhalis [23] = type: cell-based, Moraxella catarrhalis; details: BD2 buffer
Y. enterocolitica [24] = type: cell-based, Yersinia enterocolitica; details: periodate +, BD2 buffer
[25] = tested on: Mycobacterium smegmatis lysate proteins; experiment: M. smegmatis lysate treated with periodate, SDS-PAGE; details: 7.5 and 15 mM periodate, 70° C. 15 minutes, FIG. 13
C. difficile spores = type: cell-based, Clostridium difficile
[26] = biological target: pancreatic ribonuclease A (RNase A) (Bos taurus, UniProt P61823); experiment: Inhibition of RNase A by pre-treatment with periodate, HeLa RNA integrity on agarose gel; details: RNase A pre-incubated with 15 mM periodate, 70° C. 15 minutes, FIG. 14
B. thuringiensis [27] = type: cell-based, Bacillus thuringiensis; details: BD2 buffer
Mycobacteria = experiment: Release of DNA from Mycobacteria by solvents, detergents, formic acid, borate; type: cell-based, Mycobacterium; details: solvents to strip waxy cell wall component
Method: The hardy cell wall of Mycobacterium consists of a thick, waxy, hydrophobic, mycolate layer and a peptidoglycan layer held together by polysaccharide. […] Similarly, various detergents (e.g., SDS), formic acid, and borate were tested at elevated temperatures.

Chain of Pancreatic Ribonuclease A (P61823 27-150): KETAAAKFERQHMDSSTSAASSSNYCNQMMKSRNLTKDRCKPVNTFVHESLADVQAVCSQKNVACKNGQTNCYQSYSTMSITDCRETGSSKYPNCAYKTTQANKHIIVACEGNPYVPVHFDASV
Chain of pancreatic ribonuclease A (RNase A) (P61823 27-150): as above

SMILES: [Na+].[O-][Cl+3]([O-])([O-])[O-] [Perchlorate, sodium perchlorate, reference compound]
- % DNA release [1]: 6.2% and 6.7% and 6.4%
- AUC, Ade [1]: 79 and 85 and 81
- % DNA release (Average) [1]: 6.4%
- AUC, Ade (Average) [1]: 81.7

SMILES: [O-][I+3]([O-])([O-])O [Periodate, sodium (meta)periodate]
- Ct values (K. pneumonia [2]; 35° C. 20 minutes): 24.3
- Ct values (K. pneumonia [2]; 70° C. 20 minutes): 9.3
- Ct values (K. pneumonia [2]; 80° C. 20 minutes): 9.6
- Ct values (F. philomiragia [3]; 35° C. 20 minutes): 15.3
- Ct values (F. philomiragia [3]; 70° C. 20 minutes): 15.5
- Ct values (F. philomiragia [3]; 80° C. 20 minutes): 16.0
- % DNA Released (C. albicans [4]; 35° C. 20 minutes): 105.4%
- % DNA Released (C. albicans [4]; 70° C. 20 minutes): 155.3%
- % DNA Released (C. albicans [4]; 80° C. 20 minutes): 156.4%
- Periodate efficiency (Ct Swab 6 (−) Ct average) ([5]; 1:10 dilution of DNA, Copan): 3.78
- Periodate efficiency (Ct Swab 6 (−) Ct average) ([5]; 1:10 dilution of DNA, Puritan): 5.72
- Ct value (1:10 dilution of DNA) Copan, Average ([5]; (+) periodate): 27.55
- Ct value (1:10 dilution of DNA) Puritan, Average ([5]; (+) periodate): 27.11
- Ct value (neat DNA) Copan, Average ([5]; (+) periodate): 24.02
- Ct value (neat DNA) Puritan, Average ([5]; (+) periodate): 23.69
- Ct value (1:10 dilution of DNA) Copan ([5]; (+) periodate 30 mM, Swabs 1-5): 26.49 and 28.11 and 29.12 and 33.99 and 26.47
- Ct value (1:10 dilution of DNA) Puritan ([5]; (+) periodate 30 mM, Swabs 1-5): 26.24 and 27.74 and 26.60 and 27.29 and 27.67
- Ct value (neat DNA) Copan ([5]; (+) periodate 30 mM, Swabs 1-5): 22.99 and 24.60 and 25.55 and 30 .09 and 22.93
- Ct value (neat DNA) Puritan ([5]; (+) periodate 30 mM, Swabs 1-5): 22.67 and 24.19 and 23.28 and 23.93 and 24.36
- Periodate efficiency (Ct Swab 6 (−) Ct average) ([5]; neat DNA, Copan): 3.73
- Periodate efficiency (Ct Swab 6 (−) Ct average) ([5]; neat DNA, Puritan): 3.93
- increase in the amount of aMTB-specific DNA recovered per swab ([5]; periodate included vs not included): > 10 fold
- % DNA Released (S. aureus [6]; 35° C. 20 minutes): 18.4%
- % DNA Released (S. aureus [6]; 70° C. 20 minutes): 24.8%
- % DNA Released (S. aureus [6]; 80° C. 20 minutes): 26.7%
- % DNA Released (F. philomiragia [7]; 35° C. 20 minutes): 65.3%
- % DNA Released (F. philomiragia [7]; 70° C. 20 minutes): 89.4%
- % DNA Released (F. philomiragia [7]; 80° C. 20 minutes): 92.0%
- % DNA Released (Y. enterocolitica [8]; 35° C. 20 minutes): 52.1%
- % DNA Released (Y. enterocolitica [8]; 70° C. 20 minutes): 80.8%
- % DNA Released (Y. enterocolitica [8]; 80° C. 20 minutes): 89.5%
- spore viability by culture [9]: dramatically reduced the viability
- percentage of total DNA released (Mycobacterium smegmatis; 6 mM NPI in PAB buffer solutions pH 3.7-9.4, 70° C. 20 minutes): 37.4-59.4%
- increase of percentage of total DNA released vs no NPI (Mycobacterium smegmatis; 6 mM NPI, 70° C. 20 minutes): approximately 9 fold
- Growth (up to 42 days) [10]: NEG
- Time to Positive [10]: >42 days
- growth on LJ medium [10]: no growth of any microorganism was observed
- Ct values (C. albicans [11]; 35° C. 20 minutes): 27.1
- Ct values (C. albicans [11]; 70° C. 20 minutes): 15.2
- Ct values (C. albicans [11]; 80° C. 20 minutes): 15.7
- Ct values (M. catarrhalis [12]; 35° C. 20 minutes): 16.3
- Ct values (M. catarrhalis [12]; 70° C. 20 minutes): 12.7
- Ct values (M. catarrhalis [12]; 80° C. 20 minutes): 10.8
- Ct values (P. aeruginosa [13]; 35° C. 20 minutes): 10.8
- Ct values (P. aeruginosa [13]; 70° C. 20 minutes): 7.8
- Ct values (P. aeruginosa [13]; 80° C. 20 minutes): 8.8
- quantity of full-length purified RNase protein [14]: decreased
- % DNA Released (K. pneumonia [15]; 35° C. 20 minutes): 49.0%
- % DNA Released (K. pneumonia [15]; 70° C. 20 minutes): 119.2%
- % DNA Released (K. pneumonia [15]; 80° C. 20 minutes): 124.4%
- % DNA Released (P. aeruginosa [16]; 35° C. 20 minutes): 38.6%
- % DNA Released (P. aeruginosa [16]; 70° C. 20 minutes): 117.8%
- % DNA Released (P. aeruginosa [16]; 80° C. 20 minutes): 98.2%
- Real-time PCR Ct value (in duplicate) [17]: 32/32 and 41/33 and 23/23 and 33/33 and 19/19 and 24/25
- % DNA Released (M. smegmatis [18]; 35° C. 20 minutes): 49.7%
- % DNA Released (M. smegmatis [18]; 70° C. 20 minutes): 85.2%
- % DNA Released (M. smegmatis [18]; 80° C. 20 minutes): 80.6%
- Ct values (B. thuringiensis [19]; 35° C. 20 minutes): 15.5
- Ct values (B. thuringiensis [19]; 70° C. 20 minutes): 10.3
- Ct values (B. thuringiensis [19]; 80° C. 20 minutes): 10.8
- spore viability by culture [20]: no C. botulinum or C. difficile spores were viable by culture
- Ct values (M. smegmatis [21]; 35° C. 20 minutes): 22.8
- Ct values (M. smegmatis [21]; 70° C. 20 minutes): 18.1
- Ct values (M. smegmatis [21]; 80° C. 20 minutes): 17.9
- Ct values (S. aureus [22]; 35° C. 20 minutes): 15.5
- Ct values (S. aureus [22]; 70° C. 20 minutes): 13.7
- Ct values (S. aureus [22]; 80° C. 20 minutes): 15.0
- % DNA Released (M. catarrhalis [23]; 35° C. 20 minutes): 77.1%
- % DNA Released (M. catarrhalis [23]; 70° C. 20 minutes): 143.6%
- % DNA Released (M. catarrhalis [23]; 80° C. 20 minutes): 140.5%
- Ct values (Y. enterocolitica [24]; 35° C. 20 minutes): 15.5
- Ct values (Y. enterocolitica [24]; 70° C. 20 minutes): 12.0
- Ct values (Y. enterocolitica [24]; 80° C. 20 minutes): 11.4
- protein bands in cell-free lysate [25]: some protein bands selectively decreased or disappeared altogether
- spore viability by culture (C. difficile spores): no C. botulinum or C. difficile spores were viable by culture
- RNase A activity on HeLa ribosomal RNA [26]: ribosomal RNA was no longer degraded by RNase A
- % DNA release [1]: 46.6% and 48.0% and 37.4%
- AUC, Ade [1]: 594 and 611 and 476
- % DNA release (Average) [1]: 44.0%
- AUC, Ade (Average) [1]: 560.3
- % DNA release (Average) ([1]; listed as sodium (meta)periodate): 44%
- % DNA Released (B. thuringiensis [27]; 35° C. 20 minutes): 42.1%
- % DNA Released (B. thuringiensis [27]; 70° C. 20 minutes): 103.5%
- % DNA Released (B. thuringiensis [27]; 80° C. 20 minutes): 107.7%

SMILES: O.O.O.O.[Na+].[O-]B1OO1 [Perborate, sodium perborate tetrahydrate, reference compound]
- % DNA release [1]: 5.5% and 6.3% and 6.4%
- AUC, Ade [1]: 70 and 80 and 82
- % DNA release (Average) [1]: 6.1%
- AUC, Ade (Average) [1]: 77.3

SMILES: O=S(=O)([O-])OOS(=O)(=O)[O-].[Na+].[Na+] [Persulfate, sodium persulfate]
- % DNA release [1]: 15.9% and 14.7% and 14.3%
- AUC, Ade [1]: 202 and 187 and 182
- % DNA release (Average) [1]: 15.0%
- AUC, Ade (Average) [1]: 190.3
- % DNA release (Average) ([1]; listed as sodium persulfate): 15%

SMILES: C[S+](C)[O-] [DMSO]
- release of DNA (Mycobacteria): no increased release of DNA was observed
